Test results taken from patent US8772480B2, “Inhibitors of PI3 kinase and/or mTOR” (priority 2009, dated 2014).

Experiments:
[1] = test system: phosphorylation of Akt at Serine 473 in U87 MG cells; assay: cells; settings: Homo sapiens, U-87 MG, 2 h, read-out: U87Cell IC50, pAkt (Ser 473), U87 MG cells, two hours with compound
PI3Kα = PI3Kα (Homo sapiens (Human), UniProt P42336); settings: read-out: PI3Kα AlphaScreen ® Ki
[2] = molecular target: ProfilerPro Kinase Selectivity Assay Kit kinases (Homo sapiens, UniProt P31751); type: biochemical; settings: AKT2; 1 μM compound concentration
Procedure: (§1) Compounds were profiled using a LabChip® EZ Reader II platform and a ProfilerPro Kinase Selectivity Assay Kit (Caliper Lifesciences Inc., Hopkinton, Mass.). Compounds were tested at a concentration of 1 M in duplicate, with mean data reported as percent of control (POC).

[3] = molecular target: ProfilerPro Kinase Selectivity Assay Kit kinases (Homo sapiens, UniProt P08069); type: biochemical; settings: IGF1R; 1 μM compound concentration
Procedure: as §1

[4] = molecular target: ProfilerPro Kinase Selectivity Assay Kit kinases (Homo sapiens, UniProt O95819); type: biochemical; settings: HGK; 1 μM compound concentration
Procedure: as §1

[5] = molecular target: ProfilerPro Kinase Selectivity Assay Kit kinases (Homo sapiens, UniProt Q15418); type: biochemical; settings: RSK1; 1 μM compound concentration
Procedure: as §1

[6] = molecular target: ProfilerPro Kinase Selectivity Assay Kit kinases (Homo sapiens, UniProt O14965); type: biochemical; settings: AURORA A; 1 μM compound concentration
Procedure: as §1

[7] = molecular target: ProfilerPro Kinase Selectivity Assay Kit kinases (Homo sapiens, UniProt Q13188); type: biochemical; settings: MST2; 1 μM compound concentration
Procedure: as §1

[8] = molecular target: ProfilerPro Kinase Selectivity Assay Kit kinases (Homo sapiens, UniProt P06213); type: biochemical; settings: INSR; 1 μM compound concentration
Procedure: as §1

[9] = molecular target: ProfilerPro Kinase Selectivity Assay Kit kinases (Homo sapiens, UniProt P43405); type: biochemical; settings: SYK; 1 μM compound concentration
Procedure: as §1

[10] = molecular target: ProfilerPro Kinase Selectivity Assay Kit kinases (Homo sapiens, UniProt P06241); type: biochemical; settings: FYN; 1 μM compound concentration
Procedure: as §1

[11] = molecular target: ProfilerPro Kinase Selectivity Assay Kit kinases (Homo sapiens, UniProt P12931); type: biochemical; settings: SRC; 1 μM compound concentration
Procedure: as §1

[12] = molecular target: ProfilerPro Kinase Selectivity Assay Kit kinases (Homo sapiens, UniProt Q13177); type: biochemical; settings: PAK2; 1 μM compound concentration
Procedure: as §1

[13] = molecular target: ProfilerPro Kinase Selectivity Assay Kit kinases (Homo sapiens, UniProt P48730); type: biochemical; settings: CK1 delta; 1 μM compound concentration
Procedure: as §1

[14] = molecular target: ProfilerPro Kinase Selectivity Assay Kit kinases (Homo sapiens, UniProt P17612); type: biochemical; settings: PKA alpha; 1 μM compound concentration
Procedure: as §1

[15] = molecular target: human mutant B-raf (HuBraf V600E) (Homo sapiens (Human), UniProt P15056, V600E); settings: at 10 μM compound concentration; POC = 100 − percent inhibition
Procedure: B-Raf Homogenous Time Resolved Fluorescence (HTRF) Kinase Assay
The final concentration of the kinase reaction buffer is 50 mM Tris-HCl pH 7.5, 10 mM MgCl2, 0.5% glucose, 0.5 mM DTT, 0.01% BSA. […] The detection reaction proceeds for one hour and is read on a RubyStar (BMG Labtech, Durham, N.C.) counter. IC50s for the test compounds are generated using Excel-XLfit software. For single concentration percent of control (POC;=100−percent inhibition) assays, compounds were assayed as above at a single test concentration of 10 M test compound.

ProfilerPro Kinase Selectivity Assay Kit kinases (Homo sapiens, UniProt P06241), sequence (P06241 2-537 limits assumed): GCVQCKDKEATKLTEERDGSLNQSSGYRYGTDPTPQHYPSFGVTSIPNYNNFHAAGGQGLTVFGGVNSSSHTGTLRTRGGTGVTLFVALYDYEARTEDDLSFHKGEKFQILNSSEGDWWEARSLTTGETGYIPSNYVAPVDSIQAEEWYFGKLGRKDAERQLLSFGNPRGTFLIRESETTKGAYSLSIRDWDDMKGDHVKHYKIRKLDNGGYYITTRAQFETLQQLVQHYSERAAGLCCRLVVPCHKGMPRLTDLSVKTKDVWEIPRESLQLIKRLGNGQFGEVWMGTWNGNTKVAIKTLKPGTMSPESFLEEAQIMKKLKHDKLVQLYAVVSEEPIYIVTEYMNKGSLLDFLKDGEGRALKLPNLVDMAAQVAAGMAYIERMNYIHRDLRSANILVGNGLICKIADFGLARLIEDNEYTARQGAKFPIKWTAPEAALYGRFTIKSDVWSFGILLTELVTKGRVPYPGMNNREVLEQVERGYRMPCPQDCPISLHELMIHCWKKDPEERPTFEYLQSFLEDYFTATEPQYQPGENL
ProfilerPro Kinase Selectivity Assay Kit kinases (Homo sapiens, UniProt O95819), sequence (O95819 2-1239 limits assumed): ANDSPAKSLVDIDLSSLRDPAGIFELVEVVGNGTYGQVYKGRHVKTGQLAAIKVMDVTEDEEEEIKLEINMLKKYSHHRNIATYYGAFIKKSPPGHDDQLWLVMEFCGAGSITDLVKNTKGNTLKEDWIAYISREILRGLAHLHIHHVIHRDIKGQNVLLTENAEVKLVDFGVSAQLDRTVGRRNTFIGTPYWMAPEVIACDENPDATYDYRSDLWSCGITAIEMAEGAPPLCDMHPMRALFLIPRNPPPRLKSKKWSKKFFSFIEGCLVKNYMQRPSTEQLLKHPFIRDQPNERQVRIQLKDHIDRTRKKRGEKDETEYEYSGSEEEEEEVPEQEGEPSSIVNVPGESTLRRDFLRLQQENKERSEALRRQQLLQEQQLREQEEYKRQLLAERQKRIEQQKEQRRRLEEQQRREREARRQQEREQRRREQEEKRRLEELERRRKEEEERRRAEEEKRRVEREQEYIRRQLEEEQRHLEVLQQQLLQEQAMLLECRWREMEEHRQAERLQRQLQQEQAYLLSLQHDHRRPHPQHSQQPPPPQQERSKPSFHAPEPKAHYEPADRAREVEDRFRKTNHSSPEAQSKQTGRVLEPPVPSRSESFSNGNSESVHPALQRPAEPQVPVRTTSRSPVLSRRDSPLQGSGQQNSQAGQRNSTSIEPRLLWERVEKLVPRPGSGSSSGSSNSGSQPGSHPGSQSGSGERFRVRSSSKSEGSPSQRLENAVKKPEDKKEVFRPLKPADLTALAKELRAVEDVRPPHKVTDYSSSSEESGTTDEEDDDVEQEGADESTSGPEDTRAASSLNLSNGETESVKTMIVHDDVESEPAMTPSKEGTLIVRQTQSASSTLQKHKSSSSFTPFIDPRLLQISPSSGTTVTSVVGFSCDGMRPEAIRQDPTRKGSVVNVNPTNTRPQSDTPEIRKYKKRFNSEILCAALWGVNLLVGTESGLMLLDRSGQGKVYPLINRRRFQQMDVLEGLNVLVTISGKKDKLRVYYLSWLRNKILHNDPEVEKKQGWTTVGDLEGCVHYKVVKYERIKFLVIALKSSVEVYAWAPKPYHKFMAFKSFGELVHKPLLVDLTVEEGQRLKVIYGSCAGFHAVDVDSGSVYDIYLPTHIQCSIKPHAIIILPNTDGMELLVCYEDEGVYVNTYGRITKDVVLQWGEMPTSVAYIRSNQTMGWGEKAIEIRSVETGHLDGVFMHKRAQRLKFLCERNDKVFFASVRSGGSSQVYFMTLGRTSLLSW
ProfilerPro Kinase Selectivity Assay Kit kinases (Homo sapiens, UniProt Q13177), sequence (Q13177 2-524 limits assumed): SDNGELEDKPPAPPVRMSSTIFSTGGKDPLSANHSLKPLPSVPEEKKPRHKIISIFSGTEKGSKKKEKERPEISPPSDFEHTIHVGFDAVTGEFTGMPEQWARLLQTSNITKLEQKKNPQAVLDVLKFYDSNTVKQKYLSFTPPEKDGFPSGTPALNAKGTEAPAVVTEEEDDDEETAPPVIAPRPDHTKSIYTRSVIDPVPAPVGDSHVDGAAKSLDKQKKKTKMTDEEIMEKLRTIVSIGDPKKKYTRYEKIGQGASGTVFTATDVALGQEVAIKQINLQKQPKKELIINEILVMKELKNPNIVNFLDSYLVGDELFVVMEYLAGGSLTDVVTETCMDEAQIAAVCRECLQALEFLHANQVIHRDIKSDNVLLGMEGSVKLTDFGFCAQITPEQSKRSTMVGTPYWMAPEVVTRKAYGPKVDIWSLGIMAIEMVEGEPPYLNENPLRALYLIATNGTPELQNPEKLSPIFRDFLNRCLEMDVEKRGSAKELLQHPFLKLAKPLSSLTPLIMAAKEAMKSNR
ProfilerPro Kinase Selectivity Assay Kit kinases (Homo sapiens, UniProt P12931), sequence (P12931 2-536 limits assumed): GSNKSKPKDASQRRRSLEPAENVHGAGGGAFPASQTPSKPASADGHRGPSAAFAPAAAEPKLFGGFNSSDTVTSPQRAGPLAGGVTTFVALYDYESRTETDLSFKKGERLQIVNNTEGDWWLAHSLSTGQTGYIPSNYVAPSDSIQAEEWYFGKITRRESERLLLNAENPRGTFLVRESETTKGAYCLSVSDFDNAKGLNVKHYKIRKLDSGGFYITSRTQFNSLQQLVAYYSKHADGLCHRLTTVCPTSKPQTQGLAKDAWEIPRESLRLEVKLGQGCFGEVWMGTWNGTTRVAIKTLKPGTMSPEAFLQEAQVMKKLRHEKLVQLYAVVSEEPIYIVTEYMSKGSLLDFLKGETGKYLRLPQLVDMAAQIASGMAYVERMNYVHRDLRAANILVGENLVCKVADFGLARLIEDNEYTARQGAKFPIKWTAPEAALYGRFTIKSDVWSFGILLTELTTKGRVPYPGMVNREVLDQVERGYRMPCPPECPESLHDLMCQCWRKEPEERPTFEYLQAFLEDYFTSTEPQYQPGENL
PI3Kα, sequence (P42336 whole entry): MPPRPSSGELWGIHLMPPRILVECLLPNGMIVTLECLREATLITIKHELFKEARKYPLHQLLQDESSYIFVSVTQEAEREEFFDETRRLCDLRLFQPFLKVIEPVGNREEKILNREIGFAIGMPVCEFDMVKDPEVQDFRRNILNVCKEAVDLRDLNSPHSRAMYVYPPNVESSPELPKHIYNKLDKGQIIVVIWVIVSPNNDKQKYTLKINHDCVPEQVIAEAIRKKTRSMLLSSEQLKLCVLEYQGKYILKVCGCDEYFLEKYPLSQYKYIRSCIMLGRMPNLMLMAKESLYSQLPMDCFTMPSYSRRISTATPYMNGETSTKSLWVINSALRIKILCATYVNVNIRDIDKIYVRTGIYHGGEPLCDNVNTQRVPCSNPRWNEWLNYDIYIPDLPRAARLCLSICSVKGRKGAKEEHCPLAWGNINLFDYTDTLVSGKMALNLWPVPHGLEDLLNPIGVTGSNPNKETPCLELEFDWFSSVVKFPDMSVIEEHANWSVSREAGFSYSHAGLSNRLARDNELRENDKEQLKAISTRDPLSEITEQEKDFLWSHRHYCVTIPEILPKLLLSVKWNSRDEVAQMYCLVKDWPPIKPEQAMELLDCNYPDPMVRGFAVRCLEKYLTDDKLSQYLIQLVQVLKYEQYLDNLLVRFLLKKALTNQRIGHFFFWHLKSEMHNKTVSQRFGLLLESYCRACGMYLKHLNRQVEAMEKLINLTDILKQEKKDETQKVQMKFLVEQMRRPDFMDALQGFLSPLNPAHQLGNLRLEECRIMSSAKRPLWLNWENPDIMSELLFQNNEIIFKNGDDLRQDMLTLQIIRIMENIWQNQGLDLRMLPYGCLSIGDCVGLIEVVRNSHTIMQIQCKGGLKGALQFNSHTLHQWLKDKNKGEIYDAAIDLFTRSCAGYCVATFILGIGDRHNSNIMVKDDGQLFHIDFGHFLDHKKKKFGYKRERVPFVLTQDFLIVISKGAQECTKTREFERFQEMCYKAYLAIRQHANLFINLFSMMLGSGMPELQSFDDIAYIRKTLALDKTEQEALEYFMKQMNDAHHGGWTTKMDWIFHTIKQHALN
PI3Kα, sequence (P27986 whole entry partner): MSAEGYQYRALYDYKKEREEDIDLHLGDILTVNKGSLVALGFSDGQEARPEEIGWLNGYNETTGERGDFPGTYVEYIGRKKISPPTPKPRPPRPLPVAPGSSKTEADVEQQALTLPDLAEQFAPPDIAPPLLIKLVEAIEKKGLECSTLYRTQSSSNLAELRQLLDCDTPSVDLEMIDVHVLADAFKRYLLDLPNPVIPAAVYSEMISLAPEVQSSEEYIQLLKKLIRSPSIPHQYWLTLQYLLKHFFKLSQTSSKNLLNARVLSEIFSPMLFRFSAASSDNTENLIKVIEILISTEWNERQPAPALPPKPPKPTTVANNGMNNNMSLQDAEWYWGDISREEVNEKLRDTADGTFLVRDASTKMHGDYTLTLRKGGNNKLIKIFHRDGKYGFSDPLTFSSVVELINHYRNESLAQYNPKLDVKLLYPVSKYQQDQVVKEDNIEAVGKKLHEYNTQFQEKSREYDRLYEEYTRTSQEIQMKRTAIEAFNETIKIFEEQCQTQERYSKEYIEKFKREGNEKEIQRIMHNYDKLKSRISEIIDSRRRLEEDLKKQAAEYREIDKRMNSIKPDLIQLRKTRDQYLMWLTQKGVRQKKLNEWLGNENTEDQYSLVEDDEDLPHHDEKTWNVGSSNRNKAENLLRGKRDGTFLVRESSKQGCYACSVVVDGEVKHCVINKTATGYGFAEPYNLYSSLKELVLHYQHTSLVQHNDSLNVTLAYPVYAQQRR

SMILES | IC50 [1] | Ki (PI3Kα) | POC (Percent of control) AKT2 [2] | POC (Percent of control) IGF1R [3] | POC (Percent of control) HGK [4] | POC (Percent of control) RSK1 [5] | POC (Percent of control) AURORA A [6] | POC (Percent of control) MST2 [7] | POC (Percent of control) INSR [8] | POC (Percent of control) SYK [9] | POC (Percent of control) FYN [10] | POC (Percent of control) SRC [11] | POC (Percent of control) PAK2 [12] | POC (Percent of control) CK1 delta [13] | POC (Percent of control) PKA alpha [14] | Mutant B-raf HTRF Assay POC Mean n = 2 [15]
Cc1cnc(Nc2cccc3[nH]ccc23)c(-c2nc(C)nc(N)n2)c1 [Example 46, N-(3-(4-Amino-6-Methyl-1,3,5-Triazin-2-yl)-5-Methylpyridin-2-yl)-1H-Indol-4-Amine] | 0.079 µM | 0.13 µM | 110 POC | 78 POC | 104 POC | 100 POC | 31 POC | 96 POC | 98 POC | 104 POC | 101 POC | 96 POC | 95 POC | 91 POC | 102 POC | 68% of Control (POC)
Cc1cnc(Nc2cccc3[nH]ncc23)c(-c2nc(C)nc(N)n2)c1 [Example 47, N-(3-(4-Amino-6-Methyl-1,3,5-Triazin-2-yl)-5-Methylpyridine-2-yl)-1H-Indazol-4-Amine] | 0.197 µM | 0.036 µM | 74 POC | 82 POC | 91 POC | 105 POC | 85 POC | 101 POC | 99 POC | 95 POC | 87 POC | 79 POC | 99 POC | 69 POC | 16 POC | 91% of Control (POC)
CCc1cnc(Nc2ccc(OC)nc2)c(-c2nc(C)nc3[nH]cnc23)c1 [Example 74, 5-ethyl-N-(6-methoxypyridin-3-yl)-3-(2-methyl-9H-purin-6-yl)pyridin-2-amine] | 0.089 µM | 0.011 µM | 96 POC | 93 POC | 94 POC | 100 POC | 102 POC | 98 POC | 96 POC | 97 POC | 104 POC | 99 POC | 94 POC | 97 POC | 102 POC | 111% of Control (POC)
COc1ccc(Nc2ncc(CN3CCN(C(C)=O)CC3)cc2-c2nc(C)nc3[nH]cnc23)cn1 [Example 89, 1-(4-((6-(6-methoxypyridin-3-ylamino)-5-(2-methyl-9H-purin-6-yl)pyridin-3-yl)methyl)piperazin-1-yl)ethanone] | 0.146 µM | 0.042 µM | 93 POC | 98 POC | 95 POC | 99 POC | 108 POC | 98 POC | 97 POC | 80 POC | 99 POC | 101 POC | 97 POC | 98 POC | 99 POC | 102% of Control (POC)
